Measurements published in patent US20130309218A1, “PROCESS FOR PRODUCING AQUEOUS SOLUTION CONTAINING FAT-SOLUBLE SUBSTANCE” (WACKER CHEMIE AG, priority 2011, published 2013).

Legend:
Assay type in all cases: physicochemical
[1] = B-2: solubility of CoQ10 with GZK2 (HPLC); conditions: 12 mg CoQ10 (as complex or alone) in 3 mL purified water, sonicated 1 hour
Procedure: 0 mg, 6.2 mg, 12.5 mg, 25 mg or 50 mg of GZK2 was mixed into 60 mg of CAVAMAX® W8 CoQ10 (containing 12 mg of CoQ10) as a super solubilizer and 3 mL purified water was added. The resulting mixture was then sonicated for 1 hour using an ultrasonic apparatus (Ikeda Scientific Co., Ltd.).
As a comparison, GZK2 was incorporated into 12 mg of CoQ10 as a super solubilizer and the mixture was prepared as described above. The resulting mixture was left to stand and filtered and the resulting solution was analyzed using HPLC.

[2] = B-1: solubility of CoQ10 with NaTC (HPLC); conditions: 50 mM MES buffer, 2 hours at 40° C.
Procedure: 1450 μL each of a 50 mM 2-morpholinoethanesulfonic acid (MES) buffer solution (containing 300 mM NaCl, 140 mM KSCN and 5 mM CaCl2) or the aforementioned buffer solution into which a super solubilizer (0.42% (w/v) NaTC, 0.83% (w/v) NaTC or 1.66% (w/v) NaTC) was dissolved were added to 57 mg of CAVAMAX® W8 CoQ10 (5 mg water content, 12.14 mg CoQ10 and 40 mg γCD) and sonication was performed for several seconds using an ultrasonic apparatus (Ikeda Scientific Co., Ltd.) and left to stand for 2 hours at 40° C.
As a comparison, 2 mL of 50 mM 2-morpholinoethanesulfonic acid (MES) buffer solution (containing 300 mM NaCl, 140 mM KSCN and 5 mM CaCl2) (in lieu of NaTC) was added to 12.14 mg of CoQ10 (in lieu of CAVAMAX® W8 CoQ10), and the mixture was prepared as described above. The resulting mixture was left to stand and filtered and the resulting solution was analyzed using HPLC.

[3] = A-4: solubility of curcumin with quillaja saponin (HPLC); conditions: total 2 mL 10% aqueous ethanol, 1 hour at 40° C.
Procedure: The mixture was then allowed to stand, was filtered and the resulting solution was analyzed using HPLC.

[4] = A-8: solubility of curcumin with Na glycocholate (HPLC); conditions: Amount of Na Glycocholate Added 2.0% (w/v); 2 mL water; filtered immediately following mixing
[5] = Follow-up HPLC measurement of curcumin concentration in αCD aqueous solution comparable to Patent Document 2, Table 4
Procedure: Additionally, given that the maximum value of the concentration of the standard solution which was used as a reference was 100 μg/mL (Patent Document 2, Table 3), the concentration is outside the measurement range of the standard and is likely unreliable.

[6] = A-2: solubility of curcumin with GZ (HPLC); conditions: 50 mM MES buffer, 2 hours at 40° C.
[7] = A-6: solubility of curcumin with methylcellulose (HPLC); conditions: Super Solubilizer: None (comparison); 1.4 mg curcumin in 2 mL ion-exchanged water
Procedure: This mixture was then mixed by inversion.
(§1) The resulting mixture was left to stand and filtered and the resulting solution was analyzed using HPLC.

[8] = A-5: solubility of curcumin with polysorbate (HPLC); conditions: Super Solubilizer: None (comparison); 1.4 mg curcumin in 2 mL ion-exchanged water
Procedure: This mixture was then sonicated for several seconds using an ultrasonic apparatus (Ikeda Scientific Co., Ltd.) and left to stand for 10 min at 40° C.
as §1

[9] = A-1 Preparation Method 1: solubility of curcumin with NaTC (HPLC); conditions: 50 mM MES buffer, sonicated, 2 hours at 40° C., 0.2 μm filter
Procedure: The mixture was then filtered and the solution obtained was analyzed via HPLC as described above.

[10] = H-1: solubility of CAPE with NaTC (HPLC); conditions: 1.4 mg CAPE (as complex or alone) in 5 mL water, sonicated 3 minutes
Procedure: As a comparison, water or a solution prepared by dissolving a super solubilizer (1.0% (w/v) NaTC) in water was combined with 1.4 mg of CAPE (in lieu of CAPE-γCD complex) and the mixture was prepared as described above. The resulting mixture was left to stand and filtered and the resulting solution was analyzed using HPLC.

Structure (SMILES): COC1=C(OC)C(=O)C(C/C=C(\C)CC/C=C(\C)CC/C=C(\C)CC/C=C(\C)CC/C=C(\C)CC/C=C(\C)CC/C=C(\C)CC/C=C(\C)CC/C=C(\C)CCC=C(C)C)=C(C)C1=O [CoQ10, coenzyme Q10]
- CoQ10 Concentration ([1]; Amount of GZK2 Added 0 mg): 0.2 µg/mL
- CoQ10 Concentration ([1]; Amount of GZK2 Added 6.2 mg): 3.6 µg/mL
- CoQ10 Concentration ([1]; Amount of GZK2 Added 12.5 mg): 9.1 µg/mL
- CoQ10 Concentration ([1]; Amount of GZK2 Added 25 mg): 3.9 µg/mL
- CoQ10 Concentration ([1]; Amount of GZK2 Added 50 mg): 3.9 µg/mL
- CoQ10 Concentration ([2]; NaTC concentration 0% (w/v)): 0 µg/mL
- CoQ10 Concentration ([2]; NaTC concentration 0.42% (w/v)): 0 µg/mL
- CoQ10 Concentration ([2]; NaTC concentration 0.83% (w/v)): 0 µg/mL
- CoQ10 Concentration ([2]; NaTC concentration 1.66% (w/v)): 1.52 µg/mL

Structure (SMILES): COc1cc(/C=C/C(=O)CC(=O)/C=C/c2ccc(O)c(OC)c2)ccc1O [Curcumin, curcumin]
- Curcumin Concentration ([3]; Amount of QS Added 0 μL): 0.02 µg/mL
- Curcumin Concentration ([3]; Amount of QS Added 200 μL): 16.81 µg/mL
- Curcumin Concentration ([3]; Amount of QS Added 1000 μL): 122.96 µg/mL
- Curcumin Concentration [4]: 12.31 µg/mL
- concentration of curcumin ([5]; content of αCD 1%): 1470 ng/mL
- concentration of curcumin ([5]; content of αCD 2.5%): 3630 ng/mL
- concentration of curcumin ([5]; content of αCD 5%): 8290 ng/mL
- Curcumin Concentration ([6]; GZ Concentration 0% (w/v)): 3.95 µg/mL
- Curcumin Concentration ([6]; GZ Concentration 3.50% (w/v)): 98.19 µg/mL
- Curcumin Concentration [7]: 0.01 µg/mL
- Curcumin Concentration [8]: 0.01 µg/mL
- Curcumin Concentration ([9]; NaTC concentration 0% (w/v)): 3.95 µg/mL
- Curcumin Concentration ([9]; NaTC concentration 0.83% (w/v)): 35.35 µg/mL
- Curcumin Concentration ([9]; NaTC concentration 1.66% (w/v)): 219.2 µg/mL

Structure (SMILES): O=C(/C=C/c1ccc(O)c(O)c1)OCCc1ccccc1 [CAPE, caffeic acid phenethyl ester]
- CAPE Concentration ([10]; NaTC concentration 0% (w/v)): 16 µg/mL
- CAPE Concentration ([10]; NaTC concentration 1.0% (w/v)): 155 µg/mL
